From patent US20250262247A1, “MICROGLIAL CELLS AS THERAPEUTIC TARGETS IN NEURODEVELOPMENTAL DISORDERS” (The Regents of the University of California, priority 2022, published 2025)

Tested on: MGL
Test: Phagocytosis assay with block of zymosan uptake
Format: cell-based, human
Conditions: 1 μM, 30 min prior to incubation with zymosan
Experimental: Phagocytosis Assay. Phagocytosis assay was performed according to the manufacturer's instructions with pHrodo™ Red Zymosan A BioParticles® (Life Technologies, Carlsbad, USA) conjugate for phagocytosis. Briefly, 20,000 MGL were plated on a 96-well tissue culture plate and incubated in M2 media [Neurobasal media supplemented with 2×Gem21 NeuroPlex, 1×NEAA, 1× Glutamax] containing fluorescently labeled zymosan particles (0.125 mg/ml) for 2 h at 37° C., 5% CO2. Fluorescence was measured with Tecan Infinite 200 PRO microplate reader (Life Sciences, Switzerland).
For experiments featuring block of zymosan uptake, cell monolayers were treated with 1 μM Cytochalasin D (Sigma-Aldrich) 30 min prior to incubation with zymosan.

C=C1[C@@H](C)[C@H]2[C@H](Cc3ccccc3)NC(=O)[C@]23[C@H](OC(C)=O)/C=C/[C@@](C)(O)C(=O)[C@@H](C)C/C=C/[C@H]3[C@@H]1O [Cytochalasin D]
Engulfment of zymosan particles: reduced
